What was measured:
[1] = biological target: T1, PHD2 enzyme (residues 181-417) (Homo sapiens, UniProt Q9GZT9); experiment: Inhibition of PHD2 Enzyme (LC/MS detection of hydroxylated peptide); type: biochemical; details: 5 nM enzyme, 1 μM biotin-labeled peptide, 2 μM 2-oxoglutarate, 60 min pre-incubation, pH 7.3; -log(IC50), IC50 molar; read-out: Inhibition of PHD2 (pIC50) (converted)
T1 construct: The IC50 values for the PHD2 enzyme (residues 181-417) were determined
Procedure: The IC50 values for the PHD2 enzyme (residues 181-417) were determined by mixing increasing amounts of an inhibitor with a fixed amount of enzyme (5 nM, final concentration) and Biotin-labeled peptide (Biotin-Asp-Leu-Glu-Met-Leu-Ala-Pro-Tyr-Ile-Pro-Met-Asp-Asp-Asp-Phe-Gln-Leu, 1 μM final concentration) and 2-oxyglutarate (2 μM final concentration) in 50 mM HEPES, 50 mM KCl, 0.5 mM TCEP, 2 μM FeCl2, 0.1 mg/mL BSA, at pH 7.3. The reaction was conducted by pre-incubating the enzyme in the presence of the inhibitor for 60 minutes at room temperature. The activity of the free enzyme was measured by adding the peptide, the 2-oxoglutarate, and ascorbic acid (1 mM final concentration). The enzymatic activity was quenched after 60 minutes by adding an excess of a tight binding inhibitor to the assay mixture. The amount of product released was measured by using a LC/MS system (Agilent HPLC with Applied Biosystems API3000 Mass Spectrometer). Data were analyzed using the classical isotherm equation for the determination of IC50 values and are reported in Table 1, below, as pIC50, i.e., −log(IC50), where IC50 is molar concentration of the test compound at 50% inhibition.
(§1) Table 1 lists biological data for some of the compounds shown in the examples, where larger pIC50 and pEC50 values represent higher potency or activity, respectively. The IC50 data (reported in Table 1 as pIC50) were obtained using the enzyme-based assay described in the specification under the heading “Inhibition of PHD2 Enzyme.” The EC50 data (reported in Table 1 as pEC50) were obtained using the cell-based assay described in the specification under the heading “Cell-based HIF-α Stabilization Assay.”

[2] = tested on: HIF1a protein content in H9c2 rat cardiomyocytes; experiment: Cell-based HIF-α Stabilization Assay (HIF1a ELISA); details: H9c2 cells, 24 hours compound incubation, concentration giving 50% of desferrioxamine maximum response, -log(EC50), EC50 molar, read-out: Stabilization of HIF-α (pEC50) (converted)
Procedure: H9c2 rat cardiomyocytes (ATCC) were seeded in 96-well tissue culture microplates and cultured for 24 hours prior to addition of compounds (11 point range of serial dilutions) or DMSO vehicle. After 24 hours of compound incubation, whole cell extracts were prepared by lysing cells in cell extraction buffer containing protease and phosphatase inhibitors (Meso-Scale Discovery). HIF1a protein content was assessed by ELISA (Meso-Scale Discovery) and expressed as % relative to the maximum response obtained from the positive control, desferrioxamine (Sigma-Aldrich). EC50 for each compound was obtained by curve-fitting using XLfit4 MicroSoft Excel curve-fitting software to calculate the compound concentration that results in 50% of the desferrioxamine maximum response.
as §1

T1 sequence (Q9GZT9 181-417): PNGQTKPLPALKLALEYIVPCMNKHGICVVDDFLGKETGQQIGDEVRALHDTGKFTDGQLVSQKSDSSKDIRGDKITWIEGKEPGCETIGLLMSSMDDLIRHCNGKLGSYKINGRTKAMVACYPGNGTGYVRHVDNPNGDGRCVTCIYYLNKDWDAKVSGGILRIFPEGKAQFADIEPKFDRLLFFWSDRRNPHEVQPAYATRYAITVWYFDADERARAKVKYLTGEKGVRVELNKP

IC50 [1] [nM]	Structure (SMILES)	EC50 [2] [nM]
100	CCN1CCN(C(=O)c2cnc(C(=O)NCc3ccc(C#N)cc3C)c(O)c2)CC1 [Example 8, N-(4-cyano-2-methylbenzyl)-5-(4-ethylpiperazine-1-carbonyl)-3-hydroxypicolinamide]	12600
39.8	N#Cc1ccc2c(c1)OCC2NC(=O)c1ncccc1O (centres unmarked) [Example 22, N-(6-cyano-2,3-dihydrobenzofuran-3-yl)-3-hydroxypicolinamide]	7940
31.6	N#Cc1ccc2c(c1)CC[C@H]2NC(=O)c1ncc(Cl)cc1O [Example 31, (R)-5-chloro-N-(5-cyano-2,3-dihydro-1H-inden-1-yl)-3-hydroxypicolinamide]	25100
39.8	Cc1cc(CNC(=O)c2ncccc2O)c(C)cc1C#N [Example 12, N-(4-cyano-2,5-dimethylbenzyl)-3-hydroxypicolinamide]	25100
39.8	Cc1cc(C#N)ccc1CNC(=O)c1ncc(Cl)cc1O [Example 36, 5-chloro-N-(4-cyano-2-methylbenzyl)-3-hydroxypicolinamide]	25100
39.8	N#Cc1cnc(C(=O)N[C@@H]2CCc3cc(C#N)ccc32)c(O)c1 [Example 34, (R)-5-cyano-N-(5-cyano-2,3-dihydro-1H-inden-1-yl)-3-hydroxypicolinamide]	12600
31.6	N#Cc1ccc(CNC(=O)c2ncccc2O)c(F)c1 [Example 5, N-(4-cyano-2-fluorobenzyl)-3-hydroxypicolinamide]	7940
25.1	N#Cc1ccc(CNC(=O)c2ncccc2O)c(Cl)c1 [Example 15, N-(2-chloro-4-cyanobenzyl)-3-hydroxypicolinamide]	12600
15.8	Cc1cc(C#N)cc(C)c1CNC(=O)c1ncc(F)cc1O [Example 27, N-(4-cyano-2,6-dimethylbenzyl)-5-fluoro-3-hydroxypicolinamide]	6310
15.8	N#Cc1ccc2c(c1)CC[C@H]2NC(=O)c1ncc(F)cc1O [Example 30, (R)—N-(5-cyano-2,3-dihydro-1H-inden-1-yl)-5-fluoro-3-hydroxypicolinamide]	15800
20	Cc1cc(C#N)ccc1CNC(=O)c1ncccc1O [Example 4, N-(4-cyano-2-methylbenzyl)-3-hydroxypicolinamide]	7940
3160	N#Cc1cccc(CNC(=O)c2ncccc2O)c1 [Example 2, N-(3-cyanobenzyl)-3-hydroxypicolinamide, reference compound]	
1580	CC(NC(=O)c1ncccc1O)c1ccc(C#N)cc1 (centres unmarked) [Example 39, N-(1-(4-cyanophenyl)ethyl)-3-hydroxypicolinamide]	50100
10	COc1cnc(C(=O)NCc2ccc(C#N)cc2C)c(O)c1 [Example 38, N-(4-cyano-2-methylbenzyl)-3-hydroxy-5-methoxypicolinamide]	7940
20	Cc1cc(C#N)cc(C)c1CNC(=O)c1ncc(Cl)cc1O [Example 25, 5-chloro-N-(4-cyano-2,6-dimethylbenzyl)-3-hydroxypicolinamide]	12600
10	COc1cnc(C(=O)NCc2c(C)cc(C#N)cc2C)c(O)c1 [Example 29, N-(4-cyano-2,6-dimethylbenzyl)-3-hydroxy-5-methoxypicolinamide]	1580
39.8	Cc1cc(C#N)cc(C)c1CNC(=O)c1ncc(N2CCN(CC(F)F)CC2)cc1O [Example 42, N-(4-cyano-2,6-dimethylbenzyl)-5-(4-(2,2-difluoroethyl)piperazin-1-yl)-3-hydroxypicolinamide]	3980
20	Cc1cc(C#N)ccc1CNC(=O)c1ncc(F)cc1O [Example 35, N-(4-cyano-2-methylbenzyl)-5-fluoro-3-hydroxypicolinamide]	25100
31.6	N#Cc1ccc(CNC(=O)c2ncccc2O)cc1F [Example 6, N-(4-cyano-3-fluorobenzyl)-3-hydroxypicolinamide]	6310

IC50 [1] [nM]	Structure (SMILES)	EC50 [2] [nM]
25.1	Cc1cc(C#N)cc(C)c1CNC(=O)c1ncc(C#N)cc1O [Example 26, 5-cyano-N-(4-cyano-2,6-dimethylbenzyl)-3-hydroxypicolinamide]	12600
1000	N#Cc1ccc(CNC(=O)c2ncccc2O)cn1 [Example 3, N-((6-cyanopyridin-3-yl)methyl)-3-hydroxypicolinamide]	
7.94	COc1cnc(C(=O)N[C@@H]2CCc3cc(C#N)ccc32)c(O)c1 [Example 33, (R)—N-(5-cyano-2,3-dihydro-1H-inden-1-yl)-3-hydroxy-5-methoxypicolinamide]	6310
15.8	Cc1cc(C#N)c(F)cc1CNC(=O)c1ncccc1O [Example 13, N-(4-cyano-5-fluoro-2-methylbenzyl)-3-hydroxypicolinamide]	10000
31.6	Cc1cnc(C(=O)NCc2c(C)cc(C#N)cc2C)c(O)c1 [Example 11, N-(4-cyano-2,6-dimethylbenzyl)-3-hydroxy-5-methylpicolinamide]	7940
251	Cc1cc(C#N)ccc1CNC(=O)c1ncc(C(F)(F)F)cc1O [Example 37, N-(4-cyano-2-methylbenzyl)-3-hydroxy-5-(trifluoromethyl)picolinamide]	
12.6	N#Cc1ccc2c(c1)CC[C@H]2NC(=O)c1ncccc1O [Example 20, (R)—N-(5-cyano-2,3-dihydro-1H-inden-1-yl)-3-hydroxypicolinamide]	
126	N#Cc1ccc2c(c1)CC[C@H]2NC(=O)c1ncc(C(F)(F)F)cc1O [Example 32, (R)—N-(5-cyano-2,3-dihydro-1H-inden-1-yl)-3-hydroxy-5-(trifluoromethyl)picolinamide]	39800
3980	N#Cc1ccc(CNC(=O)c2ncccc2O)c(C(F)(F)F)c1 [Example 7, N-(4-cyano-2-(trifluoromethyl)benzyl)-3-hydroxypicolinamide]	
398	N#Cc1ccc(CNC(=O)c2ncccc2O)nc1 [Example 24, N-((5-cyanopyridin-2-yl)methyl)-3-hydroxypicolinamide]	7940
10	N#Cc1ccc2c(c1)CC[C@H]2NC(=O)c1ncccc1O [Example 19, (R)—N-(5-cyano-2,3-dihydro-1H-inden-1-yl)-3-hydroxypicolinamide]	6310
12.6	Cc1cc(C#N)cc(C)c1CNC(=O)c1ncccc1O [Example 10, N-(4-cyano-2,6-dimethylbenzyl)-3-hydroxypicolinamide]	3160
12.6	Cc1c(CNC(=O)c2ncccc2O)ccc(C#N)c1F [Example 14, N-(4-cyano-3-fluoro-2-methylbenzyl)-3-hydroxypicolinamide]	12600
2510	N#Cc1ccc2c(c1)CC[C@@H]2NC(=O)c1ncccc1O [Example 21, (S)—N-(5-cyano-2,3-dihydro-1H-inden-1-yl)-3-hydroxypicolinamide]	50100
316	Cc1cc(C#N)ccc1CNC(=O)c1ncc(C#N)cc1O [Example 17, 5-cyano-N-(4-cyano-2-methylbenzyl)-3-hydroxypicolinamide]	50100
251	N#Cc1ccc(CNC(=O)c2ncc(C#N)cc2O)cc1 [Example 16, 5-cyano-N-(4-cyanobenzyl)-3-hydroxypicolinamide]	6310
63.1	N#Cc1ccc(CNC(=O)c2ncccc2O)cc1 [Example 1, N-(4-cyanobenzyl)-3-hydroxypicolinamide]	10000
31.6	Cc1cnc(C(=O)N[C@@H]2CCc3cc(C#N)ccc32)c(O)c1 [Example 23, (R)—N-(5-cyano-2,3-dihydro-1H-inden-1-yl)-3-hydroxy-5-methylpicolinamide]	7940
31.6	COCCCNc1cnc(C(=O)NCc2c(C)cc(C#N)cc2C)c(O)c1 [Example 40, N-(4-cyano-2,6-dimethylbenzyl)-3-hydroxy-5-((3-methoxypropyl)amino)picolinamide]	2510

Reference: patent US20200277262A1, “N-(CYANO-SUBSTITUTED BENZYL OR PYRIDINYLMETHYL)-3-HYDROXYPICOLINAMIDE DERIVATIVES” (Takeda Pharmaceutical Company Limited, priority 2017, published 2020)
